Results from patent US20140249135A1, “PIM KINASE INHIBITORS AND METHODS OF THEIR USE” (NOVARTIS AG, priority 2007, published 2014).
Read-outs that look alike come from different tables or passages of the source.

What was measured:
[1] = target: Pim1 kinase (Homo sapiens, UniProt P11309); assay: Pim1 ATP depletion assay; assay type: biochemical;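 note: Luciferase-luciferin luminescence readout of residual ATP after PIM1 transfers phosphate to a peptide substrate, 40 µM ATP added, reaction run to roughly half ATP consumption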
[2] = target: Pim2 kinase (Homo sapiens, UniProt Q9P1W9); assay: Pim2 ATP depletion assay; assay type: biochemical; details: read-out: IC50 (μM) PIM2;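 note: Luciferase-based luminescent readout of ATP remaining after PIM2 phosphorylates a BAD peptide, final 5 nM enzyme, 4 µM ATP, 10 µM peptide, 2.5% DMSO, run to roughly half ATP consumption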
[3] = target: Pim3 kinase (Homo sapiens, UniProt Q86V86); assay: Pim3 ATP depletion assay; assay type: biochemical; details: read-out: IC50 (μM) PIM3
[4] = system: PC3 cells; assay: Cell proliferation assay (CellTiter-Glo), PC3; assay type: cell-based; details: Homo sapiens, PC-3
Experimental: HEL 92.1.7 cells (ATTC No. TIB-180, an erythroleukemia line derived from malignant peripheral blood), MV4-11 cells (ATCC No. CRL-9591, a human acute monocytic leukemia line) and PC3 cells (ATCC No. CRL-1435, a human prostatic adenocarcinoma line) were cultured in RPMI1640 supplemented with 10% FBS, sodium pyruvate and antibiotics. Cells were plated in the same medium at a density of 1000 cells per well into 96 well tissue culture plates, with outside wells vacant, on the day of assay.
Test compounds supplied in DMSO were diluted into DMSO at 500 times the desired final concentrations before dilution into culture media to 2 times final concentrations. Equal volumes of 2× compounds were added to the cells in 96 well plates and incubated at 37° C. for 3 days.
After 3 days plates were equilibrated to room temperature and equal volume of CellTiter-Glow Reagent (Promega) was added to the culture wells. The plates were agitated briefly and luminescent signal was measured with luminometer. The percent inhibition of the signal seen in cells treated with DMSO alone vs. cells treated with control compound was calculated and used to determine EC50 values (i.e., the concentration of a test compound that is required to obtain 50% of the maximum effect in the cells) for tested compounds, as shown in Example 763.

[5] = system: HEL 92.1.7 cells; assay: Cell proliferation assay (CellTiter-Glo), HEL 92.1.7; assay type: cell-based; details: Homo sapiens, read-out: EC50 (μM) HEL 92.1.7
Procedure, shortened: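 Cells in RPMI1640 with 10% FBS were seeded at 1000 cells/well and exposed to compound dilutions from DMSO stocks for 3 days at 37 °C. Viability was read by CellTiter-Glo luminescence. EC50 was derived from percent inhibition relative to DMSO-only and control-compound wells.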

[6] = target: T1, human full length PKCE enzyme (Homo sapiens, UniProt Q02156); assay: In vitro PKCE assay; assay type: biochemical; details: 10 nM enzyme, 40 uM peptide substrate, 20 uM ATP, KinaseGlo Plus readout; read-out: PKCε IC50
T1 construct: human full length PKCE enzyme purchased from InVitrogen; purchased InVitrogen
T1 sequence (Q02156 1-737): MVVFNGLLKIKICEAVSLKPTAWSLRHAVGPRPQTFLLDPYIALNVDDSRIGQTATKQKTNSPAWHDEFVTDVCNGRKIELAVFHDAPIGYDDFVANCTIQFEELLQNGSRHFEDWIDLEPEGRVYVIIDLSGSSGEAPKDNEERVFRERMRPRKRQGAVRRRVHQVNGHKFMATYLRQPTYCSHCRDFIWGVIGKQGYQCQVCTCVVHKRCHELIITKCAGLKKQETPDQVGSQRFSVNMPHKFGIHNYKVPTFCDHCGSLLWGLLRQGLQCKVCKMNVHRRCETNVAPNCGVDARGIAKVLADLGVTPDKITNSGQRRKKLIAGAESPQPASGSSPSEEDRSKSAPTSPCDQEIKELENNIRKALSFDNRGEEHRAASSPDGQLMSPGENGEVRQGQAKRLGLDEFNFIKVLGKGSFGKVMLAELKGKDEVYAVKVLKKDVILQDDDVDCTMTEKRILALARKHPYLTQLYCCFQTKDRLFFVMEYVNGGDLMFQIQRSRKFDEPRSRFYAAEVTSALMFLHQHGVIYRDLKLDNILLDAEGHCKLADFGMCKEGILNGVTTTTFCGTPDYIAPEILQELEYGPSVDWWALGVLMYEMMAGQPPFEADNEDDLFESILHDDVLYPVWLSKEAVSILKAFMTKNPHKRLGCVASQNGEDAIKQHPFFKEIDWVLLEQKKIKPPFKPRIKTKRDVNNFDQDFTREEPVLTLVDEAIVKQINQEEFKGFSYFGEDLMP

[7] = target: KDR kinase (Homo sapiens, UniProt P35968); assay: KDR AlphaScreen assay; details: KDR IC50 (μM)
[8] = Pim1 ATP depletion assay, read-out: IC50 (μM) PIM1

Sequence of KDR kinase (P35968 20-1356): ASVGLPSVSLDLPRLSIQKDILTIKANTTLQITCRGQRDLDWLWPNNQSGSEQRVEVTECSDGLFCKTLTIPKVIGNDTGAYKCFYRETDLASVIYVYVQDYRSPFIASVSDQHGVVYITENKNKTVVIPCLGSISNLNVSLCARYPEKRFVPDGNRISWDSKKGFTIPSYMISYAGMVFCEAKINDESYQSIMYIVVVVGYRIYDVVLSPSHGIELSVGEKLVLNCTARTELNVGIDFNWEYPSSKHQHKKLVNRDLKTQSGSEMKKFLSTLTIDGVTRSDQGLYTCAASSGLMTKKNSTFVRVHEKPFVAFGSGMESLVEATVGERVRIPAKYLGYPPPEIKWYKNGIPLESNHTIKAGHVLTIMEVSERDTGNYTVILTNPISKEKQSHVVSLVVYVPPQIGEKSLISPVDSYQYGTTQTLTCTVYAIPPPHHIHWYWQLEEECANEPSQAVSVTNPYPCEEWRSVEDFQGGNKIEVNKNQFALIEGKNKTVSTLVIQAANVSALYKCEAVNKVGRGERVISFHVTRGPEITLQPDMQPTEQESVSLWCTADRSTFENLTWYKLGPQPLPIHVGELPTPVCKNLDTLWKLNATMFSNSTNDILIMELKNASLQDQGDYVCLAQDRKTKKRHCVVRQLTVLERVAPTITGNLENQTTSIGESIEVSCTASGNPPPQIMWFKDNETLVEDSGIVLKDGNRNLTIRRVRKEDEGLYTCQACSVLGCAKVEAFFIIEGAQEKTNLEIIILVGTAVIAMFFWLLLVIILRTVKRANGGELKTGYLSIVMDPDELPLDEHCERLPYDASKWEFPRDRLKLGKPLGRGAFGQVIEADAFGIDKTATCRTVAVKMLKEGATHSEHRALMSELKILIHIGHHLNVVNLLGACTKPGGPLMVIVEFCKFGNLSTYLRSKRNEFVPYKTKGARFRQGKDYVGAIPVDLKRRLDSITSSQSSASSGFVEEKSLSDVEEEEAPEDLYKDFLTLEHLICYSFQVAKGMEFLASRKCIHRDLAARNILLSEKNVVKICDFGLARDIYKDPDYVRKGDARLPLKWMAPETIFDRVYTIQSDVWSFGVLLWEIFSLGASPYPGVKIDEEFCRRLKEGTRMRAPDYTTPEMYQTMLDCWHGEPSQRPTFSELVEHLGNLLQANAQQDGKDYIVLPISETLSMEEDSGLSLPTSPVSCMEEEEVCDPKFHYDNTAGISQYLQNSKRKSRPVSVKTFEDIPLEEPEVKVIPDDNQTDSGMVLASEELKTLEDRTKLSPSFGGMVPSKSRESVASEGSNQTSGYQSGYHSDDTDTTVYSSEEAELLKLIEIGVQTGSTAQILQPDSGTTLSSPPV
Sequence of Pim2 kinase (Q9P1W9 whole entry): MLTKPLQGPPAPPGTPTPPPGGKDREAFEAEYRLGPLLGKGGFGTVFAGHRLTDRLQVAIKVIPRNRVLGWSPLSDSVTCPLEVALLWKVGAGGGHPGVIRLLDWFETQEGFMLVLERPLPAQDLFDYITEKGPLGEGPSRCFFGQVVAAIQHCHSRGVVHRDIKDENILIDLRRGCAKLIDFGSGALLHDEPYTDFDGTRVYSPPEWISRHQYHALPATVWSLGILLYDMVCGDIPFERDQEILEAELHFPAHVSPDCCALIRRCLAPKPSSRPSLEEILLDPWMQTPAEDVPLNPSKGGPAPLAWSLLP
Sequence of Pim1 kinase (P11309 whole entry): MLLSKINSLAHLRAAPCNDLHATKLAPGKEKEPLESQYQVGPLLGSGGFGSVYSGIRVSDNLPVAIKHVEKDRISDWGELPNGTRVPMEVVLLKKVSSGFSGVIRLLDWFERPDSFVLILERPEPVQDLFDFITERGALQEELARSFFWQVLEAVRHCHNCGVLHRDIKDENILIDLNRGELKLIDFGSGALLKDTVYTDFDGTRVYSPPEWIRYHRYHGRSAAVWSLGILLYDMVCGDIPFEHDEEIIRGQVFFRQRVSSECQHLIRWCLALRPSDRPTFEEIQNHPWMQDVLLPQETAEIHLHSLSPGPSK

SMILES | IC50 [1, 8] [µM] | IC50 [2] [µM] | IC50 [3] [µM] | EC50 [4] [µM] | IC50 [6] [nM] | IC50 [7] [µM] | EC50 [5] [µM] | IC50 [1] [µM]
Nc1nccnc1C(=O)Nc1c(F)cccc1N1CCC(N)CC1 [Example 209, 3-amino-N-[2-(4-aminopiperidin-1-yl)-6-fluorophenyl]pyrazine-2-carboxamide] | 10 to 25 | > 25 | > 25 | 1 to 5 |  |  |  | 
Nc1nccnc1C(=O)Nc1ccc(F)cc1N1CCC(N)CC1 [Example 210, 3-amino-N-[2-(4-aminopiperidin-1-yl)-4-fluorophenyl]pyrazine-2-carboxamide] | < 1 | 1 to 10 | < 1 | < 1 |  |  |  | 
NCCC(=O)N1CCN(c2ccncc2NC(=O)c2nc(Cl)c(N)nc2N)CC1 [Example 185, 3,5-Diamino-6-chloro-pyrazine-2-carboxylic acid {4-[4-(3-amino-propionyl)-piperazin-1-yl]-pyridin-3-yl}-amide] | < 1 | < 1 | < 1 |  | 1000 to 10000 | 1 to 10 | < 1 | 
NCC1CCCN(c2ccncc2NC(=O)c2nc(Cl)c(N)nc2N)C1 (stereo not shown) [Example 182, 3,5-diamino-N-{4-[3-(amino-methyl)piperidin-1-yl]pyridin-3-yl}-6-chloropyrazine-2-carboxamide] | < 1 | < 1 | < 1 |  | 1000 to 10000 | 1 to 10 | < 1 | 
Nc1nc(N)c(-c2ccccc2F)nc1C(=O)Nc1cnccc1N1CCCC(N)C1 (stereo not shown) [Example 343, 3,5-diamino-6-(2-fluoro-phenyl)-pyrazine-2-carboxylic acid (3-amino-3,4,5,6-tetra-hydro-2H-[1,4′]bipyridinyl-3′-yl)-amide] | < 1 | < 1 | < 1 |  | 1000 to 10000 | 1 to 10 | < 1 | 
Nc1nccnc1C(=O)Nc1[nH]c(=O)ncc1N1CCCC(N)C1 (stereo not shown) [Example 235, 3-amino-N-[5-(3-aminopiperidin-1-yl)-2-oxo-2,3-dihydro-pyrimidin-4-yl]pyrazine-2-carboxamide] | < 1 | < 1 | < 1 |  | < 1000 | 10 to 25 | > 10 | 
CS(=O)(=O)c1cccc(-c2ccc(N)c(C(=O)Nc3cnccc3N3CCC[C@H](N)C3)n2)c1 [Example 320] | < 1 | < 1 | < 1 |  | 10000 to 25000 | > 25 | > 10 | 
COc1ccc(F)c(-c2cnc(N)c(C(=O)Nc3ccccc3N3CCC(N)CC3)n2)c1 [Example 393, 3-amino-6-(2-fluoro-5-methoxy-phenyl)-pyrazine-2-carboxylic acid [2-(4-amino-piperidin-1-yl)-phenyl]-amide] | < 1 | < 1 | < 1 | 1 to 5 |  |  |  | 
N#Cc1ccccc1-c1ccc(N)c(C(=O)Nc2cnccc2N2CCC[C@H](N)C2)n1 [Example 332, 3-amino-6-(2-cyano-phenyl)-pyridine-2-carboxylic acid ((S)-3-amino-3,4,5,6-tetra-hydro-2H-[1,4′]bipyridinyl-3′-yl)-amide] | < 1 | < 1 | < 1 |  | 1000 to 10000 | > 25 | 1 to 5 | 
Nc1ccc(-c2ccc(F)cc2F)nc1C(=O)Nc1cnccc1N1CCC[C@H](N)C1 [Example 431, 3-amino-6-(2,4-difluoro-phenyl)-pyridine-2-carboxylic acid ((S)-3-amino-3,4,5,6-tetrahydro-2H-[1,4′]bipyridinyl-3′-yl)-amide] | < 1 | < 1 | < 1 |  | 1000 to 10000 | > 25 | 1 to 5 | 
COc1cc(-c2cnc(N)c(C(=O)Nc3ccccc3N3CCNCC3)n2)cc(OC)c1OC [Example 395, 3-amino-6-(3,4,5-trimethoxy-phenyl)-pyrazine-2-carboxylic acid (2-piperazin-1-yl-phenyl)-amide] | < 1 | > 25 | 1 to 10 | 1 to 5 |  |  |  | 
Nc1cccnc1C(=O)Nc1cnccc1N1CCC[C@H](N)C1 [Example 175, 3-amino-N-{4-[(3S)-3-amino-piperidin-1-yl]pyridin-3-yl}-pyridine-2-carboxamide] |  | < 1 | < 1 |  | 1000 to 10000 | > 25 | > 10 | < 1
Nc1nc(N)c(C(=O)Nc2[nH]c(=O)ncc2N2CCCCC2)nc1Cl [Example 131, 3,5-diamino-6-chloro-N-(2-oxo-5-piperidin-1-yl-2,3-dihydro-pyrimidin-4-yl)pyrazine-2-carboxamide] | < 1 | < 1 | < 1 |  | > 25000 | < 1 | < 1 | 

Continued, in another order:

IC50 [1, 8] [µM] | IC50 [2] [µM] | IC50 [3] [µM] | EC50 [4] [µM] | IC50 [6] [nM] | IC50 [7] [µM] | SMILES | EC50 [5] [µM] | IC50 [1] [µM]
< 1 | 1 to 10 | < 1 | 1 to 5 |  |  | COc1ccc(F)c(-c2cnc(N)c(C(=O)Nc3ccccc3N3CCNCC3)n2)c1 [Example 396, 3-amino-6-(2-fluoro-5-methoxy-phenyl)-pyrazine-2-carboxylic acid (2-piperazin-1-yl-phenyl)-amide] |  | 
< 1 |  | < 1 | < 1 |  |  | Nc1ncc(-c2ccccc2)nc1C(=O)Nc1ccccc1N1CCC(N)CC1 [Example 397, 3-amino-6-phenyl-pyrazine-2-carboxylic acid [2-(4-amino-piperidin-1-yl)-phenyl]-amide] |  | 
< 1 | 10 to 25 | < 1 | 5 to 10 |  |  | Nc1nccnc1C(=O)Nc1cc(-c2ccn[nH]2)ccc1N1CCC(N)CC1 [Example 207, 3-amino-N-[2-(4-aminopiperidin-1-yl)-5-(1H-pyrazol-5-yl)phenyl]pyrazine-2-carbox-amide] |  | 
< 1 | 1 to 10 | < 1 | < 1 |  |  | Nc1nccnc1C(=O)Nc1cc(F)ccc1N1CCC(N)CC1 [Example 208, 3-amino-N-[2-(4-aminopiperidin-1-yl)-5-fluorophenyl]pyrazine-2-carboxamide] |  | 
< 1 | < 1 | < 1 |  | 1000 to 10000 | > 25 | Nc1cc(Cl)c(-c2ccc(N)c(C(=O)Nc3cnccc3N3CCC[C@H](N)C3)n2)cn1 [Example 410, 5,6′-diamino-4′-chloro-[2,3′]bi-pyridinyl-6-carboxylic acid ((S)-3-amino-3,4,5,6-tetrahydro-2H-[1,4′]bipyridinyl-3′-yl)-amide] | 1 to 5 | 
< 1 | < 1 | < 1 |  | 1000 to 10000 | 10 to 25 | Cc1ccccc1-c1nc(C(=O)Nc2cnccc2N2CCCC(N)C2)c(N)nc1N (stereo not shown) [Example 340, 3,5-diamino-6-o-tolyl-pyrazine-2-carboxylic acid (3-amino-3,4,5,6-tetrahydro-2H-[1,4′]bipyridinyl-3′-yl)-amide] | 1 to 5 | 
< 1 | < 1 | < 1 |  | 1000 to 10000 | > 25 | Nc1cccnc1C(=O)Nc1ccncc1N1CCCC(N)C1 (stereo not shown) [Example 174, 3-amino-N-[3-(3-aminopiperidin-1-yl)pyridin-4-yl]pyridine-2-carboxamide] | > 10 | 
